Measurements: patent US20230036854A1, “HETEROCYCLIC SPIRO-COMPOUNDS AS AM2 RECEPTOR INHIBITORS” (THE UNIVERSITY OF SHEFFIELD, priority 2018, published 2023)
Where no end group is shown, it is not given here.

Molecular target: T1, AM2 receptor (1321N1 cells transfected with CALCRL+RAMP3) (Homo sapiens, UniProt O60896+Q16602)
T1 construct: host or cells: 1321N1 cells
Experiment: AM2 receptor inhibition, LANCE cAMP agonist-antagonist competition assay
Format: cell-based
Conditions: inhibition of AM induced cAMP activation, read-out: AM2 D2 protocol: pIC50 (converted)
How it was run: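 1321N1 cells co-expressing CALCRL and RAMP3 (2500/well) were preincubated with compound for 30 min at room temperature, then stimulated with adrenomedullin at its EC50 dose for 15 min in HBSS/HEPES/BSA buffer, pH 7.4. cAMP was measured by LANCE TR-FRET and normalised to forskolin (100%) and vehicle (0%) controls.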

T1 sequence (Q16602 23-461): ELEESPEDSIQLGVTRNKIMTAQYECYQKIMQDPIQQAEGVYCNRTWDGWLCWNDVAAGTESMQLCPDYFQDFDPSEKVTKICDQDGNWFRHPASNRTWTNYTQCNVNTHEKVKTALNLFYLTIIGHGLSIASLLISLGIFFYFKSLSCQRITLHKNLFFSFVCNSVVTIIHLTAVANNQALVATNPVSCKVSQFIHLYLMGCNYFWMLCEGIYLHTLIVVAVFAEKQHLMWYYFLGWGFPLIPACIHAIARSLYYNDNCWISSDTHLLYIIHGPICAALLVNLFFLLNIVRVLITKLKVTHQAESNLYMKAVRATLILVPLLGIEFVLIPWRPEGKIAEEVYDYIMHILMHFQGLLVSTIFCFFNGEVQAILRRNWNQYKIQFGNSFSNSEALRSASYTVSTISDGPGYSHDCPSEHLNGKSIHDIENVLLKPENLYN
T1 sequence (O60896 24-148): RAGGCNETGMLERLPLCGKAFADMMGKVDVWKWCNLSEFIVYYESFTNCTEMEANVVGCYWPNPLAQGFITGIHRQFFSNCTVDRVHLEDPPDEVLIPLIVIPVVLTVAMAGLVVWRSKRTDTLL

Row | IC50 [nM] | Compound
1 | 107 | CNCc1ccccc1CN(CC(=O)Nc1cc2c(cc1C)CC1(C2)C(=O)Nc2ncccc21)C(=O)C1(C)CCN(C(C)=O)CC1 (stereo not drawn) [Example 129, Acetyl-4-methyl-N-(2-((5-methyl-2′-oxo-1,1′,2′,3-tetrahydrospiro[indene-2,3′-pyrrolo[2,3-b]pyridin]-6-yl)amino)-2-oxoethyl)-N-(2-((methylamino)methyl)benzyl)piperidine-4-carboxamide]
2 | 69.2 | CC(=O)N1CCC(C)(C(=O)N(CC(=O)Nc2cc3c(cc2C)CC2(C3)C(=O)Nc3ncccc32)Cc2ccccc2CN)CC1 (stereo not drawn) [Example 130, 1-Acetyl-N-(2-(aminomethyl)benzyl)-4-methyl-N-(2-((5-methyl-2′-oxo-1,1′,2′,3-tetrahydrospiro[indene-2,3′-pyrrolo[2,3-b]pyridin]-6-yl)amino)-2-oxoethyl)piperidine-4-carboxamide]
3 | 302 | CC1(C(=O)N(CC(=O)Nc2ccc3c(c2)C[C@@]2(C3)C(=O)Nc3ncccc32)Cc2ccccc2CN)CCNCC1 [Example 131, (R)—N-(2-(Aminomethyl)benzyl)-4-methyl-N-(2-oxo-2-((2′-oxo-1,1′,2′,3-tetrahydrospiro[indene-2,3′-pyrrolo[2,3-b]pyridin]-5-yl)amino)ethyl)piperidine-4-carboxamide]
4 | 148 | CC(=O)N1CCC(C)(C(=O)N(CC(=O)Nc2ccc3c(c2)C[C@@]2(C3)C(=O)Nc3ncccc32)Cc2ccccc2CN)CC1 [Example 132, (R)-1-Acetyl-N-(2-(aminomethyl)benzyl)-4-methyl-N-(2-oxo-2-((2′-oxo-1,1′,2′,3-tetrahydrospiro[indene-2,3′-pyrrolo[2,3-b]pyridin]-5-yl)amino)ethyl)piperidine-4-carboxamide]
5 | 6.92 | CCC1(C(=O)N(CC(=O)Nc2ccc3c(c2)C[C@@]2(C3)C(=O)Nc3ncccc32)Cc2ccccc2CN)CCN(C(C)=O)CC1 [Example 133, (R)-1-Acetyl-N-(2-(aminomethyl)benzyl)-4-ethyl-N-(2-oxo-2-((2′-oxo-1,1′,2′,3-tetrahydrospiro[indene-2,3′-pyrrolo[2,3-b]pyridin]-5-yl)amino)ethyl)piperidine-4-carboxamide]
6 | 115 | CCNCc1ccccc1CN(CC(=O)Nc1ccc2c(c1)C[C@@]1(C2)C(=O)Nc2ncccc21)C(=O)C1(CC)CCN(C(C)=O)CC1 [Example 134, (R)-1-Acetyl-4-ethyl-N-(2-((ethylamino)methyl)benzyl)-N-(2-oxo-2-((2′-oxo-1,1′,2′,3-tetrahydrospiro[indene-2,3′-pyrrolo[2,3-b]pyridin]-5-yl)amino)ethyl)piperidine-4-carboxamide]
7 | 55 | CNCc1ccc(F)cc1CN(CC(=O)Nc1ccc2c(c1)C[C@@]1(C2)C(=O)Nc2ncccc21)C(=O)C1(C)CCNCC1 [Example 135, (R)—N-(5-Fluoro-2-((methylamino)methyl)benzyl)-4-methyl-N-(2-oxo-2-((2′-oxo-1,1′,2′,3-tetrahydrospiro[indene-2,3′-pyrrolo[2,3-b]pyridin]-5-yl)amino)ethyl)piperidine-4-carboxamide]
8 | 417 | CNCc1cc(F)ccc1CN(CC(=O)Nc1ccc2c(c1)C[C@@]1(C2)C(=O)Nc2ncccc21)C(=O)C1(C)CCNCC1 [Example 137, (R)—N-[[4-Fluoro-2-(methylaminomethyl)phenyl]methyl]-4-methyl-N-[2-oxo-2-[[(3R)-2-oxospiro[1H-pyrrolo[2,3-b]pyridine-3,2′-indane]-5′-yl]amino]ethyl]piperidine-4-carboxamide]
9 | 501 | CNCc1cc(F)ccc1CN(CC(=O)Nc1ccc2c(c1)C[C@@]1(C2)C(=O)Nc2ncccc21)C(=O)C1(C)CCN(C(C)=O)CC1 [Example 138, (R)-1-Acetyl-N-[[4-fluoro-2-(methylaminomethyl)phenyl]methyl]-4-methyl-N-[2-oxo-2-[[(3R)-2-oxospiro[1H-pyrrolo[2,3-b]pyridine-3,2′-indane]-5′-yl]amino]ethyl]piperidine-4-carboxamide]
10 | 56.2 | CNCc1ccccc1CN(CC(=O)Nc1ccc2c(c1)CC1(C2)C(=O)Nc2ncccc21)C(=O)C12CCN(CC1)CC2 (stereo not drawn) [Example 139, N-(2-((Methylamino)methyl)benzyl)-N-(2-oxo-2-((2′-oxo-1,1′,2′,3-tetrahydrospiro[indene-2,3′-pyrrolo[2,3-b]pyridin]-5-yl)amino)ethyl)quinuclidine-4-carboxamide]
11 | 417 | CCC1(C(=O)N(CC(=O)Nc2ccc3c(c2)C[C@@]2(C3)C(=O)Nc3ncccc32)Cc2ccccc2CNC)CCN(C)C(=O)C1 (stereo partly drawn) [Example 140, 4-Ethyl-1-methyl-N-(2-((methylamino)methyl)benzyl)-2-oxo-N-(2-oxo-2-(((R)-2′-oxo-1,1′,2′,3-tetrahydrospiro[indene-2,3′-pyrrolo[2,3-b]pyridin]-5-yl)amino)ethyl)piperidine-4-carboxamide]
12 | 102 | CCC1(C(=O)N(CC(=O)Nc2ccc3c(c2)C[C@@]2(C3)C(=O)Nc3ncccc32)Cc2ccccc2CNC(C)C)CCN(C(C)=O)CC1 [Example 141, (R)-1-Acetyl-4-ethyl-N-(2-((isopropylamino)methyl)benzyl)-N-(2-oxo-2-((2′-oxo-1,1′,2′,3-tetrahydrospiro[indene-2,3′-pyrrolo[2,3-b]pyridin]-5-yl)amino)ethyl)piperidine-4-carboxamide]
13 | 40.7 | CNCc1ccccc1CN(CC(=O)Nc1ccc2c(c1)C[C@@]1(C2)C(=O)Nc2ncccc21)C(=O)C1(C)CCNC1 (stereo partly drawn) [Example 142, 3-Methyl-N-(2-((methylamino)methyl)benzyl)-N-(2-oxo-2-(((R)-2′-oxo-1,1′,2′,3-tetrahydrospiro[indene-2,3′-pyrrolo[2,3-b]pyridin]-5-yl)amino)ethyl)pyrrolidine-3-carboxamide]
14 | 51.3 | CNCc1ccccc1CN(CC(=O)Nc1ccc2c(c1)C[C@@]1(C2)C(=O)Nc2ncccc21)C(=O)C1(C)CCN(C(C)=O)C1 (stereo partly drawn) [Example 143, Acetyl-3-methyl-N-(2-((methylamino)methyl)benzyl)-N-(2-oxo-2-(((R)-2′-oxo-1,1′,2′,3-tetrahydrospiro[indene-2,3′-pyrrolo[2,3-b]pyridin]-5-yl)amino)ethyl)pyrrolidine-3-carboxamide]
15 | 75.9 | CNCc1ccccc1CN(CC(=O)Nc1ccc2c(c1)C[C@@]1(C2)C(=O)Nc2ncccc21)C(=O)C1(C)CN(C(C)=O)C1 [Example 144, (R)-1-Acetyl-3-methyl-N-(2-((methylamino)methyl)benzyl)-N-(2-oxo-2-((2′-oxo-1,1′,2′,3-tetrahydrospiro[indene-2,3′-pyrrolo[2,3-b]pyridin]-5-yl)amino)ethyl)azetidine-3-carboxamide]
16 | 302 | CNCc1ccccc1CN(CC(=O)Nc1ccc2c(c1)C[C@@]1(C2)C(=O)Nc2ncccc21)C(=O)C1(C)CCCN(C(C)=O)C1 (stereo partly drawn) [Example 145, 1-Acetyl-3-methyl-N-(2-((methylamino)methyl)benzyl)-N-(2-oxo-2-(((R)-2′-oxo-1,1′,2′,3-tetrahydrospiro[indene-2,3′-pyrrolo[2,3-b]pyridin]-5-yl)amino)ethyl)piperidine-3-carboxamide]
17 | 229 | CNCc1ccccc1CN(CC(=O)Nc1ccc2c(c1)C[C@@]1(C2)C(=O)Nc2ncccc21)C(=O)C1(C)CCCNC1 (stereo partly drawn) [Example 146, 3-Methyl-N-(2-((methylamino)methyl)benzyl)-N-(2-oxo-2-(((R)-2′-oxo-1,1′,2′,3-tetrahydrospiro[indene-2,3′-pyrrolo[2,3-b]pyridin]-5-yl)amino)ethyl)piperidine-3-carboxamide]
18 | 10.5 | CCC1(C(=O)N(CC(=O)Nc2ccc3c(c2)C[C@@]2(C3)C(=O)Nc3ncccc32)Cc2ccccc2CNC)CCS(=O)(=O)CC1 [Example 147, (R)-4-Ethyl-N-(2-((methylamino)methyl)benzyl)-N-(2-oxo-2-((2′-oxo-1,1′,2′,3-tetrahydrospiro[indene-2,3′-pyrrolo[2,3-b]pyridin]-5-yl)amino)ethyl)tetrahydro-2H-thiopyran-4-carboxamide 1,1-dioxide]
19 | 2.24 | CNCc1ccccc1CN(CC(=O)Nc1ccc2c(c1)C[C@@]1(C2)C(=O)Nc2ncccc21)C(=O)C1(C)CC2CCC(C1)N2C(C)=O (stereo partly drawn) [Example 148, 8-Acetyl-3-methyl-N-(2-((methylamino)methyl)benzyl)-N-(2-oxo-2-(((R)-2′-oxo-1,1′,2′,3-tetrahydrospiro[indene-2,3′-pyrrolo[2,3-b]pyridin]-5-yl)amino)ethyl)-8-azabicyclo[3.2.1]octane-3-carboxamide]
20 | 2.88 | CNCc1ccccc1CN(CC(=O)Nc1ccc2c(c1)C[C@@]1(C2)C(=O)Nc2ncccc21)C(=O)C1(C)CCCN(C(C)=O)CC1 (stereo partly drawn) [Example 149, 1-Acetyl-4-methyl-N-(2-((methylamino)methyl)benzyl)-N-(2-oxo-2-(((R)-2′-oxo-1,1′,2′,3-tetrahydrospiro[indene-2,3′-pyrrolo[2,3-b]pyridin]-5-yl)amino)ethyl)azepane-4-carboxamide]

Test system: human pancreatic cancer cells
Experiment: not given
Conditions: local injection directly into tumours, pancreatic cancer model; cited from earlier work

Row | Compound | tumour size compared to controls
21 | AM22-52: "the AM peptide antagonist (AM22-52)"; "peptide and antibody AM2 receptor inhibitors are known such as AM22-52" (TVQKLAHQIYQFTDKDKDNVAPRSKISPQGY; ends and bridges not checked; UniProt P35318 116-146, looked up, fragment) | reduced tumour size significantly
